Source: patent US20220401374A1, “COMPOSITIONS AND METHODS FOR CANCER TREATMENT BY ENHANCING ANTITUMOR IMMUNITY USING TANNIC ACID-BASED NANOCAPSULES” (Purdue Research Foundation, priority 2019, published 2022)

Tests used:
BMDCs [1] = assay: Phagocytosis of pretreated DiI-labeled B16F10 cells by BMDCs; assay type: cell-based, C57BL/6 mice
B16F10 cells = assay: Cytotoxicity by MTT assay in B16F10 cells; assay type: cell-based, murine; details: 24 h total
Experimental: Bolus-pulse: Cells were incubated with CFZ-DMSO at different CFZ concentrations for 2.4 h then washed and incubated in drug-free medium for additional 21.6 h making the total incubation time of 24 h. Low-extended: Cells were incubated with at 1/10th CFZ concentrations for 24 h. Cell viability was measured by the MTT assay at the end of 24 h. % cell viability was calculated by normalizing to the viability of control cells treated with the equivalent amount of vehicle for the same period of time.
B16F10 (derived from murine melanoma; ATCC, Manassas, Va., USA) or HCC-1937 (derived from human triple negative breast cancer; ATCC, Manassas, Va., USA) were grown in RPMI 1640 or DMEM medium, respectively, supplemented with 10% FBS and penicillin (100 IU/mL) and streptomycin (100 μg/mL). Cells were seeded in a 96 well plate at a density of 4,000 cells per well. After 24 h incubation, the culture medium was replaced with fresh medium containing CFZ (as a stock solution in DMSO), CFZ-pTA or CFZ-pTA-alb. […] The stop/solubilizing solution was added to dissolve formazan crystals, and the absorbance was read at the wavelength of 562 nm by the SpectraMax M3 microplate reader.

BMDCs [2] = assay: BMDC activation after coculture with pretreated B16F10 cells (CD40, CD86); assay type: cell-based, C57BL/6 mice; details: B16F10 pretreated 24 h, 200 nM CFZ-equivalent
Experimental: Bone marrow cells were collected from healthy male C57BL/6 as reported previously^71. Mice at the age of 6-8 weeks were sacrificed using CO2 asphyxiation. Using a syringe, the cavities of femur bones were flushed with RPMI 1640 medium containing penicillin/streptomycin. The collected bone marrow was pipetted several times and passed through a 40 μm cell strainer to obtain single cell suspension. The cells were collected by centrifugation at 500 rcf for 8 min, treated with ACK buffer, rinsed, and suspended in IMDM medium supplemented with 10% FBS, penicillin/streptomycin, 20 ng/mL GM-CSF, and 10 mM β-mercaptoethanol at a density of 2×10^6 cells per 10 mL to differentiate into dendritic cells (DCs). Additional medium was supplemented three days later, and the floating and loosely adherent cells were collected by centrifugation on day 6. The DC phenotype was confirmed by CD11c staining. […] The stained cells were analyzed by flow cytometry (Accuri C6, BD Biosciences, San Jose, Calif., USA). Fluorescence-minus-one (FMO) controls were used for compensation and gating. The extent of phagocytosis was expressed as the percentage of DiI^+CD11c^+ cells per total CD11c^+ cells. The DC activation was assessed by CD11c^+CD40^+ or CD11c^+CD86^+ per total CD11c^+ cells.

plasma protein = details: cited from earlier work
[3] = test system: splenocytes from C57BL/6 mice; assay: Cytotoxicity of CFZ on splenocytes, bolus-pulse vs low-extended; assay type: cell-based; details: 24 h total
Experimental: To estimate whether the sustained supply of CFZ is beneficial to sparing immune cells in the tumor microenvironment, we tested the cytotoxic effect of CFZ on splenocytes in two treatment regimens (FIG. 3A): a pulse treatment of bolus dose (bolus-pulse) and an extended treatment of low dose (low-extended), where bolus-pulse indicates incubation of cells in different CFZ concentrations for 2.4 h followed by washout and incubation in drug-free medium for additional 21.6 h making the total incubation time of 24 h, and low-extended indicates incubating cells in 1/10th CFZ concentrations for 24 h. The bolus-pulse regimen represents unformulated CFZ that is immediately available to the tumor upon intratumoral injection but rapidly diffuses to the circulation, whereas the low-extended regimen mimics the sustained release of CFZ from CFZ-pTA-alb over a prolonged period of time. Splenocytes freshly harvested from C57BL/6 mice were used as a surrogate for immune cells, as the spleen is the largest secondary lymphoid organ containing 25% of total lymphocytes^34, where B cells and T cells constitute 45-50% and 30-35%, respectively^35.
The cytotoxicity of CFZ was also measured on splenocytes. […] Cell viability was measured as described above.

## CC(C)C[C@H](NC(=O)[C@H](CCc1ccccc1)NC(=O)CN1CCOCC1)C(=O)N[C@@H](Cc1ccccc1)C(=O)N[C@@H](CC(C)C)C(=O)[C@@]1(C)CO1 [CFZ, Carfilzomib]
BMDCs [1]; 10 μM CFZ equivalent pretreatment 24 h, coculture 4 or 24 h
  BMDC uptake of DiI+ B16F10 cells vs untreated B16F10 cells: greater extents of DiI^+CD11c^+ cells per total CD11c^+ cells
BMDCs [1]; 4° C.
  BMDC uptake of pretreated B16F10 cells at 4° C.: diminished
BMDCs [1]; Pearson's correlation coefficient of signal colocalization
  BMDC uptake of DiI+ cells/fragments by confocal microscopy: increased
B16F10 cells
  sensitivity to bolus-pulse vs low-extended regimen: equally sensitive to the two regimens
BMDCs [2]
  CD40 expression on CD11c+ BMDCs: increased the expression of the two activation markers
  CD86 expression on CD11c+ BMDCs: increased the expression of the two activation markers
Plasma protein
  plasma protein binding: 97.6-98.2%
[3]
  sensitivity to bolus-pulse vs low-extended regimen: less sensitive to the low-extended regimen than to the bolus-pulse regimen
